# Test results from patent US20150265682A1, “THERAPEUTIC METHODS AND COMPOSITIONS FOR TREATING DIABETES” (Orient Europharma Co., Ltd., priority 2014, published 2015).
# Experiments:
# [1] = tested on: normal, T1DM and T2DM mice; experiment: Plasma insulin levels before and after treatment; type: in vivo, ICR mice; settings: for Plasma insulin Before-treatment: metformin 300 mgkg^−1 group; for Plasma insulin After-treatment: metformin 300 mgkg^−1 i.p.
# Description: The 4-week-old male ICR mice were purchased from the Animal Center of the College of Medicine, National Taiwan University (Taipei, Taiwan) with delicate humane care. This animal study was conducted by following the University ethical guidelines and the ‘Guide for the Care and Use of Laboratory Animals’ published by the US National Institutes of Health (NIH publication no. 85-23, revised 1996). The animal experiments were approved by the Institutional Animal Care and Use Committee (IACUC) of the National Taiwan University (IACUC No. 20110073). Animals were housed in a room at the constant temperature, 22±1° C., with 12 hours light and dark cycles.
# (§1) After three days of acclimatization, the mice had free access to a standard rodent chow (normal mice), a standard rodent chow after single […] streptozotocin (STZ) intraperitoneal injection (T1DM mice), and a fat-rich chow diet and fructose-sweetened water (T2DM mice) for 4 weeks. The induction of Type 1 DM was assessed and confirmed when the mice had plasma glucose levels ≧350 mgdL^−1, accompanied with polyuria, hyperphagia and decreased body weight. The induction Type 2 DM in the mice was assessed by measuring fasting plasma glucose levels and confirmed when plasma glucose level was ≧150 mgdL^−1 after the 4-week induction. The animals were assigned randomly into three groups, with seven animals in each group. In group I, the mice were treated with vehicle, 2% DMSO in normal saline, as the negative control. In group II, the mice were intraperitoneally treated with borapetoside A (0.1-10 mgkg^−1). In group Ill, the positive control, the mice received intraperitoneally metformin (300 mgkg^−1; Sigma Chemical Co., St. Louis, Mo., U.S.A.) or insulin (0.5 IUkg^−1; Insulin Actrapid® HM; Novo Nordisk, Denmark). In the acute study, mice under anesthesia received a single intraperitoneal administration of borapetoside A, negative control, or positive control. In the subacute study, mice received intraperitoneal administrations of borapetoside A, vehicle, or insulin twice a day for seven days.
# (§2) Blood samples were collected from the orbital vascular plexus of the mice under anesthesia. Blood samples were then centrifuged at 13000 rpm for 5 min, and the plasma samples were collected and kept on ice prior to the assay. The plasma glucose concentration was measured by Glucose Kit Reagent (Biosystems S. A., Barcelona, Spain) following the manufacturer's instructions, and the insulin levels were estimated using mouse insulin ELISA kit (Mercodia AB, Uppsala, Sweden).
# [2] = tested on: normal mice and mice with type 2 DM; experiment: Intraperitoneal glucose tolerance test (IPGTT); type: in vivo, ICR mice; settings: normal and type 2 DM mice; borapetoside A 0.1, 1 and 10 mgkg^−1; metformin
# Description: as §1, §2
# The mice were maintained under anesthesia throughout the procedure. Glucose (2.0 gkg^−1) was administered intraperitoneally. Blood samples were collected from the orbital vascular plexus at 0, 30, 60, 120 min. The concentrations of the plasma glucose were measured, and the values of AUC were calculated accordantly.
structure (smiles),measurement,setting,value
"CN(C)C(=N)N=C(N)N [Metformin, metformin, reference compound]",Plasma insulin Before-treatment,[1]; Normal mice,66.6 ± 1.3 pmol/L
same,Plasma insulin After-treatment,[1]; Normal mice,72 ± 3.1 pmol/L
same,Plasma insulin Before-treatment,[1]; T1DM mice,22.4 ± 0.4 pmol/L
same,Plasma insulin After-treatment,[1]; T1DM mice,22.7 ± 0.3 pmol/L
same,Plasma insulin Before-treatment,[1]; T2DM mice,148.1 ± 15.2 pmol/L
same,Plasma insulin After-treatment,[1]; T2DM mice,182.0 ± 27.7 pmol/L
same,"increase of plasma glucose level at 30 min in IPGTT, compared to the vehicle group",[2],significantly suppressed
